Laboratory results as given in PubChem BioAssay (NCI).
“And” between values parts separate entries of the source, which are not always exact repeats. Identical values can stand only once.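 Tested at 5 concentrations; 48 h exposure; 96-well plates; endpoints linearly interpolated, else capped at highest concentration. Abbreviation: GI50, concentration required for 50% inhibition of growth. Definition used: TGI = concentration required for complete inhibition of growth.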

What was measured:
Experiment in all cases: NCI tumour cell line growth inhibition, 48 h
OVCAR-3 ovarian = test system: OVCAR-3 ovarian
OVCAR-4 ovarian = test system: OVCAR-4 ovarian
OVCAR-5 ovarian = test system: OVCAR-5 ovarian
HOP-92 NSCLC = test system: HOP-92 NSCLC
SW-620 colon = test system: SW-620 colon
SK-MEL-28 melanoma = test system: SK-MEL-28 melanoma
MALME-3M melanoma = test system: MALME-3M melanoma
UACC-257 melanoma = test system: UACC-257 melanoma
CAKI-1 renal = test system: CAKI-1 renal
EKVX NSCLC = test system: EKVX NSCLC
786-0 renal = test system: 786-0 renal
SN12C renal = test system: SN12C renal
MOLT-4 leukemia = test system: MOLT-4 leukemia
LOX IMVI melanoma = test system: LOX IMVI melanoma

O=C(COc1ccc(Cl)c(Cl)c1)Nc1ccc[n+](Cc2ccc(S(=O)(=O)F)c(Cl)c2)c1
TGI (OVCAR-3 ovarian): > 100 µM
TGI (OVCAR-4 ovarian): > 100 µM
TGI (OVCAR-5 ovarian): > 100 µM
TGI (HOP-92 NSCLC): > 100 µM
TGI (SW-620 colon): > 100 µM
TGI (SK-MEL-28 melanoma): > 100 µM
TGI (MALME-3M melanoma): > 100 µM
TGI (UACC-257 melanoma): > 100 µM
TGI (CAKI-1 renal): > 100 µM
TGI (EKVX NSCLC): > 100 µM
TGI (786-0 renal): > 100 µM
TGI (SN12C renal): > 100 µM
TGI (MOLT-4 leukemia): > 100 µM

O=C(CSCC(=O)N/N=C/c1ccc2c(c1)OCO2)N/N=C/c1ccc2c(c1)OCO2
TGI (OVCAR-3 ovarian): > 100 µM
TGI (OVCAR-4 ovarian): > 100 µM
TGI (OVCAR-5 ovarian): > 100 µM
TGI (HOP-92 NSCLC): > 100 µM
TGI (SW-620 colon): > 100 µM
TGI (SK-MEL-28 melanoma): > 100 µM
TGI (MALME-3M melanoma): > 100 µM
TGI (UACC-257 melanoma): > 100 µM
TGI (CAKI-1 renal): > 100 µM
TGI (EKVX NSCLC): > 100 µM
TGI (LOX IMVI melanoma): > 100 µM
TGI (786-0 renal): > 100 µM
TGI (SN12C renal): > 100 µM
TGI (MOLT-4 leukemia): 56.8 µM

C[C@@H]1C[C@H]2[C@@H]3CCC4=CC(=O)C=C[C@]4(C)[C@@]3(F)[C@@H](O)C[C@]2(C)[C@@]1(O)C(=O)CO
TGI (OVCAR-3 ovarian): > 100 µM
TGI (OVCAR-4 ovarian): > 100 µM
TGI (OVCAR-5 ovarian): > 100 µM
TGI (HOP-92 NSCLC): > 100 µM
TGI (SW-620 colon): > 100 µM
TGI (SK-MEL-28 melanoma): > 100 µM
TGI (MALME-3M melanoma): > 100 µM
TGI (UACC-257 melanoma): > 100 µM
TGI (CAKI-1 renal): > 100 µM
TGI (EKVX NSCLC): > 100 µM
TGI (LOX IMVI melanoma): > 100 µM
TGI (786-0 renal): > 100 µM
TGI (SN12C renal): > 100 µM
TGI (MOLT-4 leukemia): > 100 µM

C[C@H]1C[C@@H]2[C@H]([C@@H](O)C[C@@]3(C)[C@H]2CC[C@]3(O)C(=O)CO)[C@@]2(C)C=CC(=O)C=C12
TGI (OVCAR-3 ovarian): > 100 µM
TGI (OVCAR-4 ovarian): > 100 µM
TGI (OVCAR-5 ovarian): > 100 µM
TGI (HOP-92 NSCLC): > 100 µM
TGI (SW-620 colon): > 100 µM
TGI (SK-MEL-28 melanoma): > 100 µM
TGI (MALME-3M melanoma): > 100 µM
TGI (UACC-257 melanoma): > 100 µM
TGI (CAKI-1 renal): > 100 µM
TGI (LOX IMVI melanoma): > 100 µM
TGI (786-0 renal): > 100 µM
TGI (SN12C renal): > 100 µM
TGI (MOLT-4 leukemia): > 100 µM

COc1ccccc1/C=C/c1ccnc2ccccc12
TGI (OVCAR-3 ovarian): 26.7 µM
TGI (OVCAR-4 ovarian): 25.4 µM
TGI (OVCAR-5 ovarian): 32.4 µM
TGI (HOP-92 NSCLC): 26.2 µM
TGI (SW-620 colon): 26.9 µM
TGI (SK-MEL-28 melanoma): 31.1 µM
TGI (MALME-3M melanoma): 24.8 µM
TGI (UACC-257 melanoma): 29.5 µM
TGI (CAKI-1 renal): 40.3 µM
TGI (EKVX NSCLC): 23 µM
TGI (LOX IMVI melanoma): 36 µM
TGI (786-0 renal): 27.7 µM
TGI (SN12C renal): 37.3 µM
TGI (MOLT-4 leukemia): 28 µM

c1ccc2c(CSCc3cccc4ccccc34)cccc2c1
TGI (OVCAR-3 ovarian): > 100 µM
TGI (OVCAR-4 ovarian): > 100 µM
TGI (OVCAR-5 ovarian): > 100 µM
TGI (HOP-92 NSCLC): > 100 µM
TGI (SW-620 colon): > 100 µM
TGI (SK-MEL-28 melanoma): > 100 µM
TGI (MALME-3M melanoma): > 100 µM
TGI (UACC-257 melanoma): > 100 µM
TGI (CAKI-1 renal): > 100 µM
TGI (EKVX NSCLC): > 100 µM
TGI (LOX IMVI melanoma): > 100 µM
TGI (786-0 renal): > 100 µM
TGI (SN12C renal): > 100 µM
TGI (MOLT-4 leukemia): > 100 µM

C[n+]1cccc(NC(=O)c2ccc(NC(=O)C34CCC(C(=O)Nc5ccc(C(=O)Nc6ccc[n+](C)c6)cc5)(CC3)CC4)cc2)c1
TGI (OVCAR-4 ovarian): > 100 µM
TGI (OVCAR-5 ovarian): > 100 µM
TGI (HOP-92 NSCLC): > 100 µM
TGI (SW-620 colon): > 100 µM
TGI (SK-MEL-28 melanoma): > 100 µM
TGI (UACC-257 melanoma): > 100 µM
TGI (EKVX NSCLC): > 100 µM
TGI (LOX IMVI melanoma): > 100 µM
TGI (786-0 renal): > 100 µM
TGI (SN12C renal): 75.1 µM
TGI (MOLT-4 leukemia): > 100 µM

COc1cc2c(c(OC)c1OC)-c1ccc(OC)c(=O)cc1C(NC(=O)COc1ccccc1)CC2 (stereo not given)
TGI (OVCAR-3 ovarian): < 0.0355 µM
TGI (OVCAR-4 ovarian): > 84 µM
TGI (OVCAR-5 ovarian): > 100 µM
TGI (HOP-92 NSCLC): 2.91 µM
TGI (SW-620 colon): > 95.2 µM
TGI (SK-MEL-28 melanoma): > 100 µM
TGI (MALME-3M melanoma): > 100 µM
TGI (UACC-257 melanoma): > 100 µM
TGI (CAKI-1 renal): 15.3 µM
TGI (EKVX NSCLC): > 100 µM
TGI (LOX IMVI melanoma): > 82.6 µM
TGI (786-0 renal): 93.8 µM
TGI (SN12C renal): > 100 µM
TGI (MOLT-4 leukemia): 53 µM

CNC(=O)OCc1nc(SC)n(C)c1CO
TGI (OVCAR-3 ovarian): > 100 µM
TGI (OVCAR-4 ovarian): > 100 µM
TGI (OVCAR-5 ovarian): > 100 µM
TGI (HOP-92 NSCLC): > 100 µM
TGI (SW-620 colon): > 100 µM
TGI (SK-MEL-28 melanoma): > 100 µM
TGI (MALME-3M melanoma): 3.42 µM
TGI (UACC-257 melanoma): > 100 µM
TGI (CAKI-1 renal): > 100 µM
TGI (EKVX NSCLC): > 100 µM
TGI (LOX IMVI melanoma): > 100 µM
TGI (SN12C renal): > 100 µM
TGI (MOLT-4 leukemia): > 100 µM

CC(=O)Nc1ccc2c(c1)/C(=C\c1ccc([N+](C)(C)C)cc1)c1ccccc1-2
TGI (OVCAR-3 ovarian): > 100 µM
TGI (OVCAR-4 ovarian): > 100 µM
TGI (OVCAR-5 ovarian): 80.4 µM
TGI (HOP-92 NSCLC): 79.9 µM
TGI (SW-620 colon): > 100 µM
TGI (SK-MEL-28 melanoma): > 100 µM
TGI (MALME-3M melanoma): > 100 µM
TGI (UACC-257 melanoma): 79.1 µM
TGI (CAKI-1 renal): > 100 µM
TGI (EKVX NSCLC): 78.6 µM
TGI (LOX IMVI melanoma): > 100 µM
TGI (786-0 renal): > 100 µM
TGI (SN12C renal): > 100 µM
TGI (MOLT-4 leukemia): > 100 µM

CN1C=c2c3c(ccc2=C2C=CC4C=C5OCOC5=CC4=C21)OCO3 (stereo not given)
TGI (OVCAR-3 ovarian): 2.16 µM and 3.2 µM
TGI (OVCAR-4 ovarian): 3.53 µM and 7.5 µM
GI50 (OVCAR-5 ovarian): 1.65 µM and 6.19 µM
TGI (OVCAR-5 ovarian): 3.04 µM and 18.5 µM
GI50 (HOP-92 NSCLC): 1.62 µM and 5.71 µM
TGI (HOP-92 NSCLC): 3 µM and 14.1 µM
GI50 (SW-620 colon): 1.25 µM
TGI (SW-620 colon): 2.52 µM and 2.99 µM
TGI (SK-MEL-28 melanoma): 3.07 µM and 7.28 µM
TGI (MALME-3M melanoma): 3.05 µM and 5.92 µM
TGI (UACC-257 melanoma): 3.26 µM and 10.1 µM
GI50 (CAKI-1 renal): 1.42 µM and 3.49 µM
TGI (CAKI-1 renal): 2.74 µM and 10.6 µM
GI50 (EKVX NSCLC): 1.72 µM and 13.5 µM
TGI (EKVX NSCLC): 3.16 µM and 26.3 µM
TGI (LOX IMVI melanoma): 3.17 µM and 3.33 µM
TGI (786-0 renal): 2.65 µM and 3.06 µM
TGI (SN12C renal): 2.9 µM and 3.87 µM
GI50 (MOLT-4 leukemia): 0.253 µM and 1.74 µM

COc1cc(C(=O)NC2CCc3cc(OC)c(OC)c(OC)c3-c3ccc(OC)c(=O)cc32)cc(OC)c1OC (stereo not given)
TGI (OVCAR-3 ovarian): 0.261 µM
TGI (OVCAR-4 ovarian): > 85.1 µM
TGI (OVCAR-5 ovarian): > 100 µM
TGI (HOP-92 NSCLC): 3.62 µM
TGI (SW-620 colon): > 100 µM
TGI (SK-MEL-28 melanoma): > 100 µM
TGI (MALME-3M melanoma): 85.3 µM
TGI (UACC-257 melanoma): 59.3 µM
TGI (CAKI-1 renal): 34 µM
TGI (EKVX NSCLC): > 100 µM
TGI (LOX IMVI melanoma): > 100 µM
TGI (786-0 renal): 70.9 µM
TGI (SN12C renal): > 100 µM
TGI (MOLT-4 leukemia): 43.2 µM

CC(=O)Oc1ccccc1
TGI (OVCAR-3 ovarian): > 100 µM
TGI (OVCAR-4 ovarian): > 100 µM
TGI (OVCAR-5 ovarian): > 100 µM
TGI (SW-620 colon): > 100 µM
TGI (SK-MEL-28 melanoma): > 100 µM
TGI (MALME-3M melanoma): > 100 µM
TGI (UACC-257 melanoma): > 100 µM
TGI (CAKI-1 renal): > 100 µM
TGI (EKVX NSCLC): > 100 µM
TGI (LOX IMVI melanoma): > 100 µM
TGI (786-0 renal): > 100 µM
TGI (SN12C renal): > 100 µM
TGI (MOLT-4 leukemia): > 100 µM
